The test system of data set [1] is Ewing sarcoma cell line SK-N-MC. As to the kind of experiment: MTS cell viability (antiproliferative) assay in SK-N-MC. The format is cell-based. The settings on record: Homo sapiens, SK-N-MC, 72 hours, mean ± SD. The procedure: (§1) Hormone-positive breast cancer cell line MCF-7 (ATCC-HTB-22; ATCC) was grown in Dulbecco's Modified Eagle's Medium (DMEM), while Ewing sarcoma cell line SK-N-MC (a kind gift from Beat Schäfer) and THP-1 (ATCC-TIB-202; ATCC) cells were grown in Roswell Park Memorial Institute (RPMI) 1640. The medium was supplemented with 10% heat-inactivated fetal bovine serum (Gibco, Thermo Fisher Scientific, Waltham, MA, USA), 100 U per mL penicillin, 100 μg per mL streptomycin, and 2 mM L-glutamine (all from Sigma-Aldrich, St. Louis, MO, USA). All cell lines were incubated at 37 °C in a 5% CO2 atmosphere.
(§2) The antiproliferative activity of the compounds was evaluated against MCF-7 (ATCC-HTB-22; ATCC), SK-N-MC (a kind gift from Beat Schäfer) and THP-1 (ATCC-TIB-202; ATCC) cancer cell lines using the MTS assay (Promega, Madison, WI, USA). Cells were seeded in 96-well plates at a density of 2 × 10^4 cells per mL in 100 μL of growth medium for THP-1 and were treated with compounds and controls directly, while 3 × 10^3 cells per mL for MCF-7 and SK-N-MC were seeded in 100 μL of growth medium and allowed to adhere overnight following the treatment. In all cases the cells were treated with respective newly prepared compounds, positive controls (17-DMAG for MCF-7 and SK-N-MC; PU-H71 for THP-1) and a vehicle control (0.5% DMSO). The incubation time after treatment was 72 hours, then CellTiter96® Aqueous One Solution Reagent (Promega, Madison, WI, USA) was added to each well. Following a 3 hours incubation, absorbance was measured at 492 nm using BioTek's Synergy™ 4 Hybrid Microplate Reader (Winooski, VT, USA). The measurements were performed in two biological repetitions and each time the experiment was performed in a triplicate. The IC50 values, representing the concentration of inhibitor required for half-maximal inhibition, are the average of three independent experiments and were calculated using GraphPad Prism 9.5.0 software (San Diego, CA, USA).

A further data set concerns the target T1, full-length Hsp90β (Homo sapiens, UniProt P08238).
T1 construct: For the protein expression of full-length Hsp90β, we received plasmids as a kind gift; made in house; host or cells: Escherichia coli strain Rosetta
As to the kind of experiment: Microscale thermophoresis (MST) binding to Hsp90β. On the procedure:
For the protein expression of full-length Hsp90β, we received plasmids as a kind gift from Dr Asta Zubriené at the Institute of Biotechnology, Vilnius University, Lithuania. Hsp90β, tagged with N-terminal 6×His-tag, was expressed in Escherichia coli strain Rosetta. The cells were cultured in LB media supplemented with kanamycin (50 μg mL^−1) and chloramphenicol (34 μg mL^−1) at 37 °C, and protein expression was initiated with 0.5 mM isopropyl β-D-1-thiogalactopyranoside (IPTG) when the OD600 reached 0.8. Following induction, the cells were incubated for 16 hours at 18 °C before being harvested by centrifugation. The cells were resuspended in a lysis buffer containing 40 mM potassium phosphate pH 8.0, 400 mM KCl, 10 mM imidazole, and protease inhibitors (Sigma), and then lysed by sonication. After centrifugation, the proteins were initially purified using a Ni^2+-affinity HisTrap column (GE Healthcare). Impurities were washed away with lysis buffer containing 20–40 mM imidazole, and Hsp90β was subsequently eluted with lysis buffer containing 300 mM imidazole. The purification process continued with size exclusion chromatography (SEC) using a Superdex-200 (16/600) column (GE Healthcare) and a running buffer of 50 mM Tris pH 7.5 at room temperature, 300 mM KCl. The purity of the fractions was confirmed by SDS-PAGE, and they were then concentrated. For the NMR experiments, Hsp90β was dialyzed against NMR buffer (50 mM potassium phosphate pD 7.5, 100 mM KCl, 2 mM DTT (98%, D10) in D2O) and subsequently frozen in liquid nitrogen.
(§3) The full-length Hsp90β was labeled using the Monolith His-Tag Labeling Kit RED-tris-NTA following the manufacturer's instructions (NanoTemper Technologies GmbH, Munich, Germany). The proteins were first diluted to a concentration of 8 nM in assay buffer (50 mM Tris–HCl, pH 7.4, containing 150 mM NaCl, 5% ethanol, and 10 mM MgCl2). To determine the Kd values, the proteins were mixed with the test compounds in a 1 : 1 ratio as stated in the manufacturers protocol. The final concentration of Hsp90β was 4 nM, with compounds added in the following ranges: 1000 μM to 5.86 μM for 8c; 312.5 μM to 0.15 μM for 13g and 125 μM to 3.91 μM for 1. Two independent Kd determinations were performed for compounds 8c and 13g. […] Next, Cdc37 (AR09008PUN, OriGene Technologies, Inc., Rockville, MD, USA) was acquired for the purpose of PPI inhibition evaluation between full-length Hsp90β and Cdc37. […] In all experiments the compounds were incubated with the proteins for 15 minutes in the dark at room temperature. The mixtures were then loaded into Monolith NT.115 Premium Capillaries (NanoTemper Technologies GmbH, Munich, Germany). Thermophoresis was induced at 1475 ± 15 nm and measured using a Monolith NT.115 pico instrument (NanoTemper Technologies GmbH, Munich, Germany). Measurements were conducted at ambient temperature (24–25 °C), with excitation power set to 20% and MST power set to 40%, and a laser on time of 5 seconds. To calculate the Kd values, the average fluorescence responses for each concentration were plotted against the logarithm of compound concentrate on using GraphPad Prism software (GraphPad Software, Inc., La Jolla, CA).
A general note: MST reads how a fluorescent partner responds to local heating, with and without ligand.

Data set [2] in a line: Solubility as observed in MST. The format is physicochemical. The note with it: MST assay buffer. On the procedure:
as §3, with “The mixtures were then loaded into Monolith NT.115 Premium Capillaries (NanoTemper Technologies GmbH, Munich, Germany).” left out, “Measurements were conducted at ambient temperature (24–25 °C), with excitation power set to 20% and MST power set to 40%, and a laser on time of 5 seconds.” left out

The test system of a further data set is leukemia cell line THP-1. In words: MTS cell viability (antiproliferative) assay in THP-1. It is filed as cell-based. The note with it: Homo sapiens, THP-1, 72 hours, mean ± SD. The procedure: as §1, §2
For data set [3], the system named is MCF-7 breast cancer cell line. In words: MTS cell viability (antiproliferative) assay in MCF-7. It is filed as cell-based. The settings on record: Homo sapiens; for IC50: MTS assay, 72 hours, mean ± SD. The procedure:
as §1, §2
For orientation: Tetrazolium assays rely on reduction of a dye to a coloured formazan, in cell work by metabolically active cells.

For data set [4], the system named is Hsp90 client protein levels (Cdk4, Akt, c-Raf, ERα, IGF1R) and Hsp70, Hsp90 in MCF-7 cells. In words: Western blot of Hsp90 client proteins and heat shock proteins. The format is cell-based. The note with it: MCF-7, 20 μM, 24 hours. The procedure: MCF-7 cells were treated with compounds 8c (20 μM and 50 μM), 13g (20 μM and 50 μM) and DDO-5936 (20 μM) or 0.5% DMSO as a negative control. The cells were incubated with the compounds or negative control for 24 hours. After incubation, the cells were rinsed with PBS (Gibco, Thermo Fisher Scientific, Waltham, MA, USA) and lysed using RIPA buffer containing 50 mM Tris–HCl pH 7.4, 150 mM NaCl, 1% NP-40, 0.5% sodium deoxycholate, and 1 mM EDTA. The RIPA buffer was further supplemented with Halt™ Protease Inhibitor Cocktail and Halt™ Phosphatase Inhibitor Cocktail (both from Thermo Fisher Scientific, Waltham, MA, USA) at a 1 : 100 dilution. The lysates were then frozen for at least 24 hours. Upon thawing, the lysates were sonicated and centrifuged at 15 000 rpm for 20 minutes at 4 °C. Only the supernatants were collected, and protein concentration was measured using the DC protein assay (Bio-Rad, Hercules, California, USA). Proteins (20 μg) were separated by SDS-PAGE on a 10% acrylamide/bisacrylamide gel, running at 80 V for 15 minutes followed by 130 V for 60 minutes. The separated proteins were then transferred onto a nitrocellulose membrane using the iBlot 2 Dry Blotting System (Thermo Fisher Scientific, Waltham, MA, USA). The membranes were blocked with 5% BSA for 1 hour at room temperature to prevent nonspecific binding. Primary antibodies were then added, and the membranes were incubated overnight at 4 °C. The primary antibodies (Cell Signaling, Danvers, MA, USA) used included anti-β-ActinMouse mAb (1 : 5000), anti-Hsp90 Rabbit mAb (1 : 1000), anti-Hsp70 Mouse mAb (1 : 1000), anti-IGF1R Rabbit (1 : 1000), anti-CDK4 Rabbit (1 : 1000), anti-ERα Mouse mAb (1 : 1000), anti-Akt Rabbit mAb (1 : 1000), and anti-c-Raf Rabbit mAb (1 : 1000). Secondary antibodies included anti-rabbit IgG, HRP-linked antibody (1 : 10 000), and anti-mouse IgG, HRP-linked antibody (1 : 10 000), which were incubated with the membranes for 1 hour at room temperature. Following washes, SuperSignal™ West Femto Maximum Sensitivity Substrate (Thermo Fisher Scientific, Waltham, MA, USA) was applied. Visualization of the blots was performed using the UVITEC Cambridge Imaging System (UVITEC, Cambridge, UK), and densitometric analysis of the western blot bands was conducted using NineAlliance software. Relative protein densities were calculated in relation to β-actin, used as a loading control.

Another data set has as its target Asp47Ala mutant of Hsp90. Also noted: method as in PMID 31555737. The settings on record: cited from earlier work.
The target in another data set is wild-type Hsp90. Also noted: method as in PMID 31555737. The settings on record: cited from earlier work.

T1 sequence (P08238 whole entry): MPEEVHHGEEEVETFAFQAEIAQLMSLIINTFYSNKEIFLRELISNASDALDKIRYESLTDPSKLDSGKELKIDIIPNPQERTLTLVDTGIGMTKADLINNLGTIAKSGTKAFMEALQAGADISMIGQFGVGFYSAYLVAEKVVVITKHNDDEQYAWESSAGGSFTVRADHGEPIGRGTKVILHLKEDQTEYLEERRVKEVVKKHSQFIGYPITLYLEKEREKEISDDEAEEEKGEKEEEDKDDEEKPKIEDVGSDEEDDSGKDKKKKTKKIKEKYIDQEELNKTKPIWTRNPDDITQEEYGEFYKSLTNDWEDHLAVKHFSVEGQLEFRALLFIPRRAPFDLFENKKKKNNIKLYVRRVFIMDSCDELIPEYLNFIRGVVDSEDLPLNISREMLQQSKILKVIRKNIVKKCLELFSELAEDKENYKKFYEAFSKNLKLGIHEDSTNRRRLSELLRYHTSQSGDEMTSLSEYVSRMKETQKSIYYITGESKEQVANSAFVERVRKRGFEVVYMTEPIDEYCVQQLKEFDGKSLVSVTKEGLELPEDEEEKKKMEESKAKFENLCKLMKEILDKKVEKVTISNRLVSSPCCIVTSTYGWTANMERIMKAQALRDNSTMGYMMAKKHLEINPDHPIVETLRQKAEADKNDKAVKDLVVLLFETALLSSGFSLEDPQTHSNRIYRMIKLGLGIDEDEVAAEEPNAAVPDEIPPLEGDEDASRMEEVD

Take `Cc1nc(Nc2nc(C(=O)N(C)CCOc3ccccc3)cs2)cc(C2CCCN(CC#N)C2)n1` (centres unmarked) [Compound 1]: the 50% inhibitory concentration (IC50) in data set [1] was 25 ± 0.4 µM; in the data set with leukemia cell line THP-1, above 50 µM; in data set [3] (MCF7, 72 h), 29.5 ± 5.4 µM. The “concentrations at which an increase in binding could be detected” value on full-length Hsp90β is listed as “above 39 μM”. Also, on full-length Hsp90β, the “highest concentration without compound-induced protein aggregation” value stood at 125 µM. The “binding to Hsp90β (qualitative)” value at full-length Hsp90β (125 μM to 3.91 μM) is “confirmed qualitatively”. In addition, the solubility result in data set [2] is “poor”.
Take `Cc1cc(C)c(S(=O)(=O)N(CC(=O)O)c2ccc(Nc3ccnc(N4CCCC4)n3)cc2)c(C)c1` [DDO-5936, reference compound]: the 50% inhibitory concentration (IC50) (in data set [1]; with leukemia cell line THP-1; in data set [3] (MCF7)) was above 50 µM in each case. In data set [4], the ERα level result is on record as “downregulated”. For the same compound, the results for the dissociation constant Kd on Asp47Ala mutant of Hsp90 and on wild-type Hsp90 were above 100 µM and 3.86 µM, respectively. Further, in data set [3] (MCF7, MCF-7, at 50 μM, read-out: growth inhibition), the inhibition at 50 µM turned out to be 17%.

For orientation: IC50 means the concentration that inhibits the measured activity by half. The term Kd denotes the constant that tells how readily two partners part at equilibrium. A word on the inhibition: it is the relative decrease from the control value, in per cent.

Values taken from PMC11375794, “Discovery of new Hsp90–Cdc37 protein–protein interaction inhibitors: in silico screening and optimization of anticancer activity” (RSC Advances, 2024).
